Measured values: US20240245673A1, “Papain-like protease (PLpro) inhibitors” (Pfizer Inc., priority 2022, published 2024)

Target: SARS-CoV-2 Papain like protease (PLpro) (Severe acute respiratory syndrome coronavirus 2 (2019-nCoV) (SARS-CoV-2), UniProt P0DTD1)
Assay: Papain Like Protease (PLpro) biochemical assay with profluorogenic substrate Z-RLRGG-AMC
Details: IC50 (μM), SARS-CoV-2 PLpro 6.25 nM, 25 μM Z-RLRGG-AMC substrate, 60 minute reaction

Question: `Cc1cnc(N2CC3CCC(C2)N3)cc1C(=O)NC1(c2cc(-c3cnn(C)c3)nc3ccccc23)CC1` [Example 285, 2-(3,8-diazabicyclo[3.2.1]octan-3-yl)-5-methyl-N-(1-(2-(1-methyl-1H-pyrazol-4-yl)quinolin-4-yl)cyclopropyl)isonicotinamide] was tested. Which IC50 did it give?
Answer: 0.003 µM

Question: Which IC50 does the source give for `Cc1ccc(N2CC3CC(C2)N3)cc1C(=O)NC1(c2cc(-c3cnn(C)c3)nc3ccccc23)CC1` [Example 289, 5-(3,6-diazabicyclo[3.1.1]heptan-3-yl)-2-methyl-N-(1-(2-(1-methyl-1H-pyrazol-4-yl)quinolin-4-yl)cyclopropyl)benzamide] here?
Answer: 0.001 µM

Same assay, conditions: SARS-CoV-2 PLpro 6.25 nM, 25 μM Z-RLRGG-AMC substrate, 60 minute reaction; read-out: IC50

Question: With `Cc1cc(C(=O)NCc2ncc[nH]2)ccc1C(=O)N[C@H](C)c1cc(-c2cnn(C)c2)nc2ccccc12` [Example 245] as the molecule, how does the IC50 read?
Answer: 0.005 µM

Question: How did the IC50 turn out when `CCN(C)C(=O)Cn1cc(-c2cc(C3(NC(=O)c4ccc(COCc5cscn5)cc4C)CC3)c3ccccc3n2)cn1` [Example 364] was run?
Answer: < 0.001 µM

Question: With `Cc1cc(COCc2cscn2)ccc1C(=O)NC1(c2cc(-c3cnn(C(C)(C)C(=O)N(C)C)c3)nc3ccccc23)CC1` [Example 363] as the molecule, how does the IC50 read?
Answer: < 0.001 µM

Question: `Cc1ccc(NC(=O)[C@H]2CCCCN2)cc1C(=O)N[C@H](C)c1cc(N)nc2ccccc12` (single isomer, unassigned) [Example 28, (R)—N-(3-(((R*)-1-(2-aminoquinolin-4-yl)ethyl)carbamoyl)-4-methylphenyl) piperidine-2-carboxamide] was tested. Which IC50 did it give?
Answer: 5.45 µM

Question: With `Cc1cc(CN(C)C(=O)c2cscn2)ccc1C(=O)N[C@H](C)c1cc(-c2cnn(C)c2)nc2ccccc12` [Example 264, (R)-N-methyl-N-(3-methyl-4-((1-(2-(1-methyl-1H-pyrazol-4-yl)quinolin-4-yl)ethyl)carbamoyl)benzyl)thiazole-4-carboxamide] as the molecule, how does the IC50 read?
Answer: 0.022 µM

Question: How did the IC50 turn out when `Cc1ccccc1C(=O)NC(C)c1cc(C2CC(F)(F)C2)nc2ccccc12` (stereo in doubt) [Example 154, N-{(1R)-1-[2-(3,3-difluorocyclobutyl)quinolin-4-yllethyl}-2-methylbenzamide] was run?
Answer: 0.988 µM

Question: `COCC(OCc1cscn1)c1ccc(C(=O)NC2(c3cc(-c4cnn(C)c4)nc4ccccc34)CC2)c(C)c1` (single isomer, unassigned) [Example 325] was tested. Which IC50 did it give?
Answer: 0.001 µM

Question: For `Cc1ccc(CN)cc1C(=O)N[C@H](C)c1cc(-c2cnn(C)c2)nc2ccccc12` [Example 11, (R)-5-(aminomethyl)-2-methyl-N-(1-(2-(1-methyl-1H-pyrazol-4-yl)quinolin-4-yl)ethyl)benzamide], which IC50 is on record?
Answer: 0.027 µM

Question: With `Cc1ccccc1C(=O)NC(C)c1cc(-c2cnn(CC(F)F)c2)nc2ccccc12` (centres unmarked) [Example 120, N-(1-{2-[1-(2,2-difluoroethyl)-1H-pyrazol-4-yl]quinolin-4-yl}ethyl)-2-methylbenzamide] as the molecule, how does the IC50 read?
Answer: 0.345 µM

Question: How did the IC50 turn out when `CC(=O)N(Cc1ccc(C(=O)N[C@H](C)c2cc(-c3cnn(C)c3)nc3ccccc23)c(C)c1)Cc1cscn1` [Example 267, (R)-2-methyl-N-(1-(2-(1-methyl-1H-pyrazol-4-yl)quinolin-4-yl)ethyl)-4-((N-(thiazol-4-ylmethyl)acetamido)methyl)benzamide] was run?
Answer: 0.21 µM

Question: Which IC50 does the source give for `Cc1ccc(NC(=O)[C@H]2CCCCN2)cc1C(=O)N[C@H](C)c1cc(-c2cnn(C)c2)nc2ccccc12` [Example 14, (R)-N-(4-methyl-3-(((R)-1-(2-(1-methyl-1H-pyrazol-4-yl)quinolin-4-yl)ethyl)carbamoyl)phenyl)piperidine-2-carboxamide] here?
Answer: 0.019 µM

Question: `Cc1ccc(C(N)=O)cc1C(=O)NC(C)c1cc(-n2ccnn2)cc2ccccc12` (centres unmarked) [Example 1, N^1-(1-(3-(1H-1,2,3-triazol-1-yl)naphthalen-1-yl)ethyl)-6-methylisophthalamide] was tested. Which IC50 did it give?
Answer: 1.79 µM

Question: `Cc1ccc(NC(=O)[C@H]2CCCCN2)cc1C(=O)NC(C)c1cc(N)nc2ccccc12` (mixture of isomers) [Example 25, (R)—N-(3-(((RS)-1-(2-aminoquinolin-4-yl)ethyl)carbamoyl)-4-methylphenyl)piperidine-2-carboxamide] was tested. Which IC50 did it give?
Answer: 0.1 µM

Question: Which IC50 does the source give for `Cc1ccccc1C(=O)N[C@H](C)c1cc(NC2COC2)nc2ccccc12` [Example 37, (R)-2-methyl-N-(1-(2-(oxetan-3-ylamino)quinolin-4-yl)ethyl)benzamide] here?
Answer: 10 µM

Question: `Cc1ccc(N(C)C(=O)[C@H]2CCCCN2)cc1C(=O)N[C@H](C)c1cc(-c2cnn(C)c2)nc2ccccc12` [Example 15, (R)—N-methyl-N-(4-methyl-3-(((R)-1-(2-(1-methyl-1H-pyrazol-4-yl)quinolin-4-yl)ethyl)carbamoyl)phenyl)piperidine-2-carboxamide] was tested. Which IC50 did it give?
Answer: 0.495 µM

Question: How did the IC50 turn out when `Cc1cc(C2(NC(=O)c3ncc[nH]3)CC2)ccc1C(=O)N[C@H](C)c1cc(-c2cnn(C)c2)nc2ccccc12` [Example 213, (R)-N-(1-(3-methyl-4-((1-(2-(1-methyl-1H-pyrazol-4-yl)quinolin-4-yl)ethyl)carbamoyl)phenyl)cyclopropyl)-1H-imidazole-2-carboxamide] was run?
Answer: 0.219 µM

Question: `Cc1ccccc1C(=O)NC(C)c1cc(-c2ccc3c(c2)nnn3C)nc2ccccc12` (centres unmarked) [Example 134] was tested. Which IC50 did it give?
Answer: 0.432 µM

Question: With `Cc1ccccc1C(=O)NC(C)c1cc(-c2c(C#N)cnn2C)nc2ccccc12` (centres unmarked) [Example 108, N-{1-[2-(4-cyano-1-methyl-1H-pyrazol-5-yl)quinolin-4-yl]ethyl}-2-methylbenzamide] as the molecule, how does the IC50 read?
Answer: 0.931 µM

Question: `Cc1ccccc1C(=O)N[C@H](C)c1cc(-c2ccn[nH]2)nc2ccccc12` [Example 48, (R)—N-(1-(2-(1H-pyrazol-5-yl)quinolin-4-yl)ethyl)-2-methylbenzamide] was tested. Which IC50 did it give?
Answer: 0.28 µM

Question: For `Cc1ccc(CNS(C)(=O)=O)cc1C(=O)N[C@H](C)c1cc(-c2cnn(C)c2)nc2ccccc12` [Example 61], which IC50 is on record?
Answer: 0.046 µM

Question: With `Cc1ccc(NC(=O)[C@H]2CCCCN2)cc1C(=O)NC(C)c1cc(-c2cn[nH]c2)cc2ccccc12` (single isomer, unassigned) [Example 52, (R)—N-(3-(((R*)-1-(3-(1H-pyrazol-4-yl)naphthalen-1-yl)ethyl)carbamoyl)-4-methylphenyl)piperidine-2-carboxamide] as the molecule, how does the IC50 read?
Answer: 0.011 µM

Question: How did the IC50 turn out when `Cc1cc(C(=O)NCc2ncsc2C)ccc1C(=O)N[C@H](C)c1cc(-c2cnn(C)c2)nc2ccccc12` [Example 203] was run?
Answer: 0.002 µM

Question: With `Cc1ccccc1C(=O)NC(C)c1cc(-c2ccc(N)nc2)nc2ccccc12` (centres unmarked) [Example 127, N-{1-[2-(6-aminopyridin-3-yl)quinolin-4-yl]ethyl}-2-methylbenzamide] as the molecule, how does the IC50 read?
Answer: 1.82 µM

Question: For `COCC(OCc1cscn1)c1ccc(C(=O)NC2(c3cc(-c4cnn(C)c4)cc4nc(C)ccc34)CC2)c(C)c1` (centres unmarked) [Example 353, 4-(2-methoxy-1-(thiazol-4-ylmethoxy)ethyl)-2-methyl-N-(1-(2-methyl-7-(1-methyl-1H-pyrazol-4-yl)quinolin-5-yl)cyclopropyl)benzamide], which IC50 is on record?
Answer: < 0.001 µM

Question: For `Cc1ccccc1C(=O)NC(C)c1cc(NCCS(=O)(=O)N(C)C)nc2ccccc12` (centres unmarked) [Example 148, N-[1-(2-{[2-(dimethylsulfamoyl)ethyl]amino}quinolin-4-yl)ethyl]-2-methylbenzamide], which IC50 is on record?
Answer: 1.77 µM

Question: With `Cc1ccc(CN)cc1C(=O)N[C@H](C)c1cc(-c2cn[nH]c2)nc2ccccc12` [Example 18, (R)-N-(1-(2-(1H-pyrazol-4-yl)quinolin-4-yl)ethyl)-5-(aminomethyl)-2-methylbenzamide] as the molecule, how does the IC50 read?
Answer: 0.027 µM

Question: How did the IC50 turn out when `Cc1ccccc1C(=O)NC(C)c1cc(-c2ccc3oc(=O)[nH]c3c2)nc2ccccc12` (centres unmarked) [Example 116, 2-methyl-N-{1-[2-(2-oxo-2,3-dihydro-1,3-benzoxazol-5-yl)quinolin-4-yl]ethyl} benzamide] was run?
Answer: 0.406 µM

Question: For `Cc1cc(C(C)(C)NC(=O)c2cscn2)ccc1C(=O)N[C@H](C)c1cc(-c2cnn(C)c2)nc2ccccc12` [Example 214, (R)-N-(2-(3-methyl-4-((1-(2-(1-methyl-1H-pyrazol-4-yl)quinolin-4-yl)ethyl)carbamoyl)phenyl)propan-2-yl)thiazole-4-carboxamide], which IC50 is on record?
Answer: 0.169 µM

Question: Which IC50 does the source give for `Cc1cc(COCc2cscn2)ccc1C(=O)NC1(c2cc(-c3cnn(CC(N)=O)c3)nc3ccccc23)CC1` [Example 352, N-(1-(2-(1-(2-amino-2-oxoethyl)-1H-pyrazol-4-yl)quinolin-4-yl)cyclopropyl)-2-methyl-4-((thiazol-4-ylmethoxy)methyl)benzamide] here?
Answer: < 0.001 µM

Question: `Cc1ccccc1C(=O)NC(C)c1cc(-c2cn[nH]c2)nc2ccccc12` (centres unmarked) [Example 101, 2-methyl-N-{1-[2-(1H-pyrazol-4-yl)quinolin-4-yl]ethyl}benzamide] was tested. Which IC50 did it give?
Answer: 0.198 µM

Question: How did the IC50 turn out when `Cc1cc(COCc2cscn2)ccc1C(=O)NC1(c2cc(-c3cnn(CCC(=O)N(C)C)c3)nc3ccccc23)CC1` [Example 362] was run?
Answer: < 0.001 µM

Question: Which IC50 does the source give for `Cc1ccccc1C(=O)NC(C)c1cc(-c2ccc(NS(C)(=O)=O)cc2)nc2ccccc12` (centres unmarked) [Example 122, N-[1-(2-{4-[(methanesulfonyl)amino]phenyl}quinolin-4-yl)ethyl]-2-methylbenzamide] here?
Answer: 0.201 µM

Question: How did the IC50 turn out when `Cc1cc(COCc2cscn2)ccc1C(=O)NC1(c2cc(-c3cnn(CS(C)(=O)=O)c3)nc3ccccc23)CC1` [Example 341, 2-methyl-N-(1-(2-(1-((methylsulfonyl)methyl)-1H-pyrazol-4-yl)quinolin-4-yl)cyclopropyl)-4-((thiazol-4-ylmethoxy)methyl)benzamide] was run?
Answer: < 0.001 µM

Question: `CCn1cc(-c2cc(C(C)NC(=O)c3ccccc3C)c3ccccc3n2)c(C)n1` (centres unmarked) [Example 115, N-{1-[2-(1-ethyl-3-methyl-1H-pyrazol-4-yl)quinolin-4-yl]ethyl}-2-methylbenzamide] was tested. Which IC50 did it give?
Answer: 1.08 µM

Question: With `COC(=O)/C=C/C(=O)NNC(=O)CCc1ccccc1C(=O)NC1(c2cc(-c3cnn(C)c3)nc3ccccc23)CC1` [Example 225, methyl (E)-4-(2-(3-(2-((1-(2-(1-methyl-1H-pyrazol-4-yl)quinolin-4-yl)cyclopropyl)carbamoyl)phenyl)propanoyl)hydrazineyl)-4-oxobut-2-enoate] as the molecule, how does the IC50 read?
Answer: 0.006 µM

Question: How did the IC50 turn out when `Cc1ccc(CN)cc1C(=O)NC(C)c1cc(-n2cc(C(F)(F)F)nn2)nc2ccccc12` (centres unmarked) [Example 31, 5-(aminomethyl)-2-methyl-N-(1-(2-(4-(trifluoromethyl)-1H-1,2,3-triazol-1-yl)quinolin-4-yl)ethyl)benzamide] was run?
Answer: 0.674 µM
